Laboratory results from US20150202291A1, “COMBINATIONS OF CHECKPOINT INHIBITORS AND THERAPEUTICS TO TREAT CANCER” (COGNATE BIOSERVICES, INC., priority 2013, published 2015).

Legend:
[1] = system: diffuse large B-cell lymphoma (DLBCL); settings: cited from earlier work
[2] = system: advanced, treatment-refractory malignancies; settings: cited from earlier work
GL261 murine glioma [3] = assay: Intracranial GL261 glioma model, survival; type: in vivo, C57BL/6 mice; settings: well-established intracranial GL261 glioma
Procedure: The inhibitory myeloid population was depleted utilizing Ly6C depleting Ab or the clinically-relevant CSF1r inhibitory drug PLX3397. […] Spleen, lymph, and brain hemispheres harvested for processing on day 16 post-implant (72 h after second treatment).
Bone marrow-derived DC and vaccination. […] Briefly, bone marrow cells were cultured in a humidified atmosphere of 5% CO2 at 37° C. overnight in complete RPMI (Mediatech, Inc. Herndon, Va.) (supplemented with 10% FBS, 1% (v/v) penicillin and streptomycin). […]

GL261 murine glioma [4] = assay: Intracranial GL261 glioma model, flow cytometry of tumor and lymph node cell populations; type: in vivo, C57BL/6 mice; settings: day 16 post-implant, 72 h after second treatment
Procedure: There may be limited endogenous immune response to tumor in C57BL/6 mice intracranially implanted with GL261 murine glioma (FIG. 1A). Mice were intracranially implanted with GL261 murine glioma and then administered PBS (1×) or lysate-pulsed DC vaccine subcutaneously on days 3 and 13 post-tumor implant. On day 16, 72 h after the second treatment, mice were euthanized and spleen, lymph, and brain hemispheres harvested for processing. […] To determine the overall physiologic effect of these cell populations, two groups of GL261 glioma-bearing mice (control and DC vaccine-treated) were maintained and monitored survival.
It was hypothesized that anti-tumor response promoted by the vaccination treatment is mitigated by PD-1/PD-L1 signaling in the tumor microenvironment. […] To evaluate this population, two additional therapies to control and DC-vaccine treatment were examined: anti-PD-1 mAb-treated and combination DC vaccine with anti-PD-1 mAb-treated groups. Spleen, lymph, and brain hemispheres harvested for processing on day 16 post-implant (72 h after second treatment). […] To evaluate therapeutic benefit, mice were implanted, treated, and monitored for survival.
The inhibitory myeloid population was depleted utilizing Ly6C depleting Ab or the clinically-relevant CSF1r inhibitory drug PLX3397. […]

CT-011: humanized IgG1 monoclonal antibody against PD-1
activity of natural killer cells ([1]; phase II trial finding): augments the activity of natural killer cells
subjects progression-free at the end of the follow-up period ([1]; phase II, DLBCL after autologous stem cell transplantation, control group 47%): 70%
subjects alive ([1]; phase II, DLBCL after autologous stem cell transplantation, control group 62%): 82%

BMS-936558: fully human IgG4 monoclonal antibody targeting PD-1
tumor regressions ([2]; advanced, treatment-refractory malignancies, biweekly administration): durable partial or complete regressions
clinical activity ([2]; subjects with non-small cell lung cancer (NSCLC)): substantial clinical activity

FC(F)(F)c1ccc(CNc2ccc(Cc3c[nH]c4ncc(Cl)cc34)cn2)cn1 [PLX3397]
survival (GL261 murine glioma [3]): entirely recovered survival benefit
activated tumor-infiltrating lymphocytes (CD3+CD8+CD25+) (GL261 murine glioma [4]): significant tumor-infiltrating population
inhibitory myeloid population (Ly6C+, PD-L1+) in tumor (GL261 murine glioma [4]): absence
